The record followed here is PubChem BioAssay (NCI).

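In this assay, cells in 96-well plates receive the compound at five concentrations for 48 hours. Endpoints are linearly interpolated between the surrounding concentrations. The concentration for 50% growth inhibition is given as GI50. TGI denotes the concentration required for complete inhibition of growth.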

Common to all, as to experiment: DTP human tumour cell line panel, 48 h
Assay [1] has as its system A549 NSCLC.
For assay [2], the system named is HS 578T breast.
Assay [3] relates to HCC-2998 colon.
Assay [4] concerns SN12C renal.
Assay [5] deals with T-47D breast.
In assay [6] the test system is SW-620 colon.
Assay [7] relates to COLO 205 colon.
Assay [8] has as its system SF-295 CNS.
Assay [9] concerns KM20L2 colon.

For orientation: GI50 means the concentration giving 50% growth inhibition. As a reminder, the TGI is the concentration giving total growth inhibition. The low end stands for greater sensitivity of the cells, the high end for lower sensitivity of the cells. For `COc1ccc2cc(-c3c(-c4ccncc4)nc(-c4ccc(S(C)=O)cc4)n3C)ccc2c1` (stereo not given), the GI50 was over 25 µM in [1]; 13.8 µM in assay [2]; 25 µM in assay [3]; 18 µM in assay [4]; 7.92 µM in [5]; over 25 µM in assay [6]. For the same compound, the GI50 was 17 µM in [7] and over 22.4 µM in assay [8]. For the same compound, the TGI in assay [1] was over 25 µM; in assay [2] it was over 25 µM; in assay [3], over 25 µM; in assay [4] it was over 25 µM; in [5], 24.6 µM; in assay [6] it was over 25 µM. The TGI in [7] and in assay [8] was over 25 µM each time.

With `CC1(C)N=C(N)N=C(N)N1c1ccc(CCCCc2ccc(S(=O)(=O)F)cc2)c(Cl)c1`, the GI50 in [1] is 0.334 µM; in assay [2], 9.27 µM; in [3], 0.884 µM; in assay [4], 0.189 µM; in assay [5], 2.05 µM; in assay [6], 0.0527 µM. Also, the GI50 in [7] was 0.34 µM; in assay [8] it was 0.636 µM. Also, the TGI in assay [1] is over 44.8 µM; in assay [2], 32.1 µM; in assay [3], 20.9 µM; in assay [4], 16.2 µM; in [5], 15.2 µM; in assay [6], 14.7 µM. Moreover, the TGI in assay [7] turned out to be 18.7 µM; in assay [8], 18.2 µM.

As to `O=C([CH-]C(=O)c1ccccc1)c1ccccc1.O=C([CH-]C(=O)c1ccccc1)c1ccccc1.[OH-].[OH-].[Ti+4]`, the GI50 in assay [1] is over 100 µM; in assay [3], over 100 µM; in assay [4] it was over 100 µM; in assay [6], 49 µM; in [7], over 100 µM; in [8], 30.4 µM. Moreover, the GI50 in assay [9] is over 100 µM. Also, the TGI in assay [1], in assay [3], in assay [4], in assay [6], in assay [7] and in [8] was over 100 µM throughout. This compound had a TGI in assay [9] of over 100 µM.

Take `BrCc1ccc(CBr)cc1`: the GI50 is 21.7 µM in [1]; 21.6 µM in [2]; 6.4 µM in [3]; 2.2 µM in [4]; 12.7 µM in assay [5]; 5.1 µM in assay [6]. In addition, the GI50 in assay [7] is 0.146 µM; in assay [8], 5.12 µM. In addition, the TGI in [1] amounted to 76.8 µM; in [2], 69 µM; in assay [3], 15.3 µM; in [4] it was 6.27 µM; in [5] it was 48.8 µM; in [6], 17.6 µM. Besides, the TGI in assay [7] was over 100 µM; in [8], 15.8 µM.

On to `C[C@@H]1O[C@@H](O[C@H]2CC[C@@]3(C)[C@H](CCC4[C@@H]3C(O)C[C@]3(C)[C@@H](c5ccc(=O)oc5)CC[C@]43O)C2)[C@H](O)[C@H](O)[C@H]1O` (stereo not given in full), for which the GI50 was under 0.00325 µM in assay [1]; under 0.00325 µM in assay [2]; 0.0075 µM in assay [3]; under 0.00325 µM in [4]; under 0.00325 µM in [5]; 0.00489 µM in assay [6]. Further, the GI50 in assay [7] and in assay [8] was 0.00664 µM each time. Besides, the TGI in [1] stood at 0.00441 µM; in [2], 0.0659 µM; in assay [3], 0.0168 µM; in assay [4] it was 0.758 µM; in assay [5] it was 0.0241 µM; in [6], 0.0123 µM. Also, the TGI is 0.013 µM in assay [7] and 0.0291 µM in assay [8].

Turning to `C#CCOc1cccc(Nc2ncnc3c(NC(=O)CCl)cccc23)c1`, the GI50 in [1] was 22.1 µM; in [2], 24.2 µM; in assay [3], 17.7 µM; in [4], 29.5 µM; in assay [5], 15.7 µM; in assay [6], 20.3 µM. The GI50 is 18.7 µM in assay [7] and 17.4 µM in assay [8]. Also, the TGI in assay [1] is 49.9 µM; in [2] it was 77.4 µM; in assay [3], 34 µM; in [4], over 100 µM; in assay [5] it was 39.3 µM; in assay [6] it was 40.9 µM. Moreover, the TGI was determined as 38.4 µM in assay [7] and 34.5 µM in assay [8].

In the case of `COc1cc(/C=C/[N+](=O)[O-])cc(Br)c1OC`, the GI50 in [1] is 7.84 µM; in [2] it was 2.9 µM; in assay [3], 1.71 µM; in assay [4] it was 3.94 µM; in assay [5], 2.57 µM; in assay [6], 1.57 µM. The GI50 was 2.17 µM in assay [7] and 2.64 µM in assay [8]. In addition, the TGI in [1] came out at 22 µM; in assay [2], 15.9 µM; in [3], 3.15 µM; in assay [4] it was 13.1 µM; in assay [5] it was 8.48 µM; in assay [6] it was 3.37 µM. Besides, the values for the total growth inhibition concentration (TGI) in assay [7] and in assay [8] were 4.58 µM and 9.88 µM, respectively.

As to `N#Cc1ccc(N=Cc2c([O-])ccc3ccccc23)cc1.[C-]#[O+].[C-]#[O+].[Ir]`, the GI50 in assay [1] was 20.8 µM; in assay [3], 14.7 µM; in assay [4] it was 13.2 µM; in assay [6], 1.93 µM; in assay [7], 1.96 µM; in assay [8], 16.9 µM. For the same compound, the GI50 in assay [9] is 16 µM. In addition, the TGI in assay [1] was found to be 38.1 µM; in [3], 27.8 µM; in assay [4] it was 27.5 µM; in assay [6], 4.09 µM; in [7], 4 µM; in [8], 35.7 µM. This compound registered a TGI in assay [9] of 29.5 µM.

For `O=C(Nc1cccc(Nc2ncc(Br)c(NCCc3cnc[nH]3)n2)c1)N1CCCC1`, the GI50 is 7.56 µM in [1]; 0.747 µM in assay [2]; 9.11 µM in assay [3]; 2.88 µM in assay [4]; 4.43 µM in assay [5]; 1.27 µM in assay [6]. In addition, the GI50 in assay [7] is 0.562 µM; in [8] it was 3.72 µM. Moreover, the TGI in assay [1] is over 67.1 µM; in assay [2], 4.1 µM; in assay [3] it was 24.3 µM; in [4] it was 33.6 µM; in [5], 25.5 µM; in [6], 11.4 µM. Moreover, the figures for the TGI in assay [7] and in assay [8] were 4.06 µM and 20.8 µM, respectively.
